Test results from patent publication US8119628B2, “Pyrrolidine fused indolobenzadiazepine HCV NS5B inhibitors” (Bristol-Myers Squibb Company, priority 2008, dated 2012).

How the values were obtained:
HCV NS5B = target: T1, HCV NS5B (Hepatitis C virus genotype 1b, UniProt Q9WMX2); assay: Modified HCV NS5B RdRp enzyme assay (preincubation protocol); type: biochemical; conditions: HCV NS5B RdRp genotype 1b
T1 construct: The protein was expressed with an 18 amino acid C-terminal truncation to enhance the solubility; made in house; host or cells: E. coli BL21(DE3)
Method: HCV NS5B RdRp cloning, expression, and purification. The cDNA encoding the NS5B protein of HCV, genotype 1b, was cloned into the pET21a expression vector. The protein was expressed with an 18 amino acid C-terminal truncation to enhance the solubility. The E. coli competent cell line BL21(DE3) was used for expression of the protein. Cultures were grown at 37° C. for ˜4 hours until the cultures reached an optical density of 2.0 at 600 nm. The cultures were cooled to 20° C. and induced with 1 mM IPTG. Fresh ampicillin was added to a final concentration of 50 μg/ml and the cells were grown overnight at 20° C.
Cell pellets (3 L) were lysed for purification to yield 15-24 […] of purified NS5B. The lysis buffer consisted of 20 mM Tris-HCl, pH 7.4, 500 mM NaCl, 0.5% triton X-100, 1 mM DTT, 1 mM EDTA, 20% glycerol, 0.5 mg/ml lysozyme, 10 mM MgCl2, 15 ug/ml deoxyribonuclease I, and Complete TM protease inhibitor tablets (Roche). After addition of the lysis buffer, frozen cell pellets were resuspended using a tissue homogenizer. To reduce the viscosity of the sample, aliquots of the lysate were sonicated on ice using a microtip attached to a Branson sonicator. The sonicated lysate was centrifuged at 100,000×g for 1 hr at 4° C. and filtered through a 0.2 μm filter unit (Corning).
The protein was purified using three sequential chromatography steps: Heparin sepharose CL-6B, polyU sepharose 4B, and Hitrap SP sepharose (Pharmacia). The chromatography buffers were identical to the lysis buffer but contained no lysozyme, deoxyribonuclease I, MgCl2 or protease inhibitor and the NaCl concentration of the buffer was adjusted according to the requirements for charging the protein onto the column. Each column was eluted with a NaCl gradient which varied in length from 5-50 column volumes depending on the column type. After the final chromatography step, the resulting purity of the enzyme is >90% based on SDS-PAGE analysis. The enzyme was aliquoted and stored at −80° C.
Standard HCV NS5B RdRp enzyme assay. HCV RdRp genotype 1b assays were run in a final volume of 60 μl in 96 well plates (Costar 3912). The assay buffer is composed of 20 mM Hepes, pH 7.5, 2.5 mM KCl, 2.5 mM MgCl2, 1 mM DTT, 1.6 U RNAse inhibitor (Promega N2515), 0.1 mg/ml BSA (Promega R3961), and 2% glycerol. All compounds were serially diluted (3-fold) in DMSO and diluted further in water such that the final concentration of DMSO in the assay was 2%. HCV RdRp genotype 1b enzyme was used at a final concentration of 28 nM. A polyA template was used at 6 nM, and a biotinylated oligo-dT12 primer was used at 180 nM final concentration. Template was obtained commercially (Amersham 27-4110). Biotinylated primer was prepared by Sigma Genosys. 3H-UTP was used at 0.6 μCi (0.29 μM total UTP). Reactions were initiated by the addition of enzyme, incubated at 30° C. for 60 min, and stopped by adding 25 μl of 50 mM EDTA containing SPA beads (4 μg/μl, Amersham RPNQ 0007). Plates were read on a Packard Top Count NXT after >1 hr incubation at room temperature.
Modified HCV NS5B RdRp enzyme assay. A modified enzyme assay was performed essentially as described for the standard enzyme assay except for the following: The biotinylated oligo dTl2 primer was precaptured on streptavidin-coated SPA beads by mixing primer and beads in assay buffer and incubating at room temperature for one hour. Unbound primer was removed after centrifugation. The primer-bound beads were resuspended in 20 mM Hepes buffer, pH 7.5 and used in the assay at final concentrations of 20 nM primer and […] beads. Order of addition in the assay: enzyme (14 nM) was added to diluted compound followed by the addition of a mixture of template (0.2 nM), 3H-UTP (0.6 μCi, 0.29 μM), and primer-bound beads, to initiate the reaction; concentrations given are final. Reactions were allowed to proceed for 4 hours at 30° C.
IC50 values for compounds were determined using seven different. […]

HCV replicon cells = assay: HCV FRET assay in HCV replicon cells; type: cell-based; conditions: Hepatitis C virus
From the text: FRET Assay Preparation. To perform the HCV FRET screening assay, 96-well cell culture plates were used. The FRET peptide (Anaspec, Inc.) (Taliani et al., Anal. Biochem. 1996, 240, 60-67) contains a fluorescence donor, EDANS, near one end of the peptide and an acceptor, DABCYL, near the other end. The fluorescence of the peptide is quenched by […] resonance energy transfer (RET) between the donor and the acceptor, but as the NS3 protease cleaves the peptide the products are released from RET quenching and the fluorescence of the donor becomes apparent. The assay reagent was made as follows: 5× cell Luciferase cell culture lysis reagent from Promega (#E153A) diluted to 1× with dH2O, NaCl added to 150 mM final, the FRET peptide diluted to 20 uM final from a 2 mM stock.
To prepare plates, HCV replicon cells, with or without a Renilla luciferase reporter gene, were trypsinized and placed into each well of a 96-well plate with titrated test compounds added in columns 3 through 12; columns 1 and 2 contained a control compound (HCV protease inhibitor), and the bottom row contained cells without compound. The plates were then placed in a CO2 incubator at 37° C.
Assays. Subsequent to addition of the test compounds described above (FRET Assay Preparation), at various times the plate was removed and Alamar blue solution (Trek Diagnostics, #00-100) was added per well as a measure of cellular toxicity. After reading in a Cytoflour 4000 instrument (PE Biosystems), plates were rinsed with PBS and then used for FRET assay by the addition of 30 ul of the FRET peptide assay reagent described above (FRET Assay Preparation) per well. The plate was then placed into the Cytoflour 4000 instrument which had been set to 340 excite/490 emission, automatic mode for 20 cycles and the plate read in a kinetic mode. Typically, the signal to noise using an endpoint analysis after the reads was at least three-fold. Alternatively, after Alamar blue reading, plates were rinsed with PBS, 50 ul of DMEM (high glucose) without phenol red was added and plates were then used for luciferase assay using the Promega Dual-Glo Luciferase Assay System.
Compound analysis was determined by quantification of the relative HCV replicon inhibition and the relative cytotoxicity values. To calculate cytoxicity values, the average Alamar Blue fluorescence signals from the control wells were set as 100% non-toxic. The individual signals in each of the compound test wells were then divided by the average control signal and multiplied by 100% to determine […]. To calculate the HCV replicon inhibition values, an average background value was obtained from the two wells containing the highest amount of HCV protease inhibitor at the end of the assay period. These numbers were similar to those obtained from naïve Huh-7 cells.
The background numbers were then subtracted from the average signal obtained from the control wells and this number was used as 100% activity. The individual signals in each of the compound test wells were then divided by the averaged control values after background subtraction and multiplied by 100% to determine percent activity. EC50 values for a protease inhibitor titration were calculated as the concentration which caused a 50% reduction in FRET or luciferase activity. The two numbers generated for the compound plate, percent cytoxicity and percent activity were used to determine compounds of interest for further analysis.

T1 sequence (Q9WMX2 2420-2992): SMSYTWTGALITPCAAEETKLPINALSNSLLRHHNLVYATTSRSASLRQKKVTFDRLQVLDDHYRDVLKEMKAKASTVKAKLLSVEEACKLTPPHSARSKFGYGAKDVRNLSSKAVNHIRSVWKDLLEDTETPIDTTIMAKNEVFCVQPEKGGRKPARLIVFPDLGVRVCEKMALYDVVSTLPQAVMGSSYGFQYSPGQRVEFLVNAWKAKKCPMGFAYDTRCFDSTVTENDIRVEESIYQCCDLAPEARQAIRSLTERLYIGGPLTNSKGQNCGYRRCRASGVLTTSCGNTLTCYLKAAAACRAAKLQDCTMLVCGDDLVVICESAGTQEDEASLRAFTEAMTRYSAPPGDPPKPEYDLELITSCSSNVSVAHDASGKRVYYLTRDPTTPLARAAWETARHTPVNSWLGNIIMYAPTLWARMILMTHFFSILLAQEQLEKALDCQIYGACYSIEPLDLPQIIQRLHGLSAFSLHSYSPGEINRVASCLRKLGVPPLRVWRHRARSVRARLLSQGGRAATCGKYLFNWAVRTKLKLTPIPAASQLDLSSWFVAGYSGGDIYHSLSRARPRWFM

| SMILES | IC50 (HCV NS5B) [nM] | EC50 (HCV replicon cells) [nM] | IC50 (HCV NS5B; reported as class) [nM] | EC50 (HCV replicon cells; reported as class) [nM] |
| --- | --- | --- | --- | --- |
| COc1ccc2c(c1)C1CN(Cc3ccccc3)CC1(C(=O)N1C[C@@H](C)O[C@@H](C)C1)Cn1c-2c(C2CCCCC2)c2ccc(C(=O)NS(=O)(=O)N(C)C)cc21 (mixture of isomers) [Example 1, rac-(3aR,14bR)-2-benzyl-10-cyclohexyl-3a-(((2S,6R)-2,6-dimethyl-4-morpholinyl)carbonyl)-N-(dimethylsulfamoyl)-13-methoxy-1,2,3,3a,4,14b-hexahydroindolo[2,1-a]pyrrolo[3,4-d][2]benzazepine-7-carboxamide] | 430 | 210 |  |  |
| COc1ccc2c(c1)C1CNCC1(C(=O)N1C[C@@H](C)O[C@@H](C)C1)Cn1c-2c(C2CCCCC2)c2ccc(C(=O)NS(=O)(=O)N(C)C)cc21 (mixture of isomers) [Example 2, rac-(3aR,14bR)-10-cyclohexyl-3a-(((2S,6R)-2,6-dimethyl-4-morpholinyl)carbonyl)-N-(dimethylsulfamoyl)-13-methoxy-1,2,3,3a,4,14b-hexahydroindolo[2,1-a]pyrrolo[3,4-d][2]benzazepine-7-carboxamide] |  |  | 20 to 500 | 20 to 500 |
| COc1ccc2c(c1)C1CN(C)CC1(C(=O)N1C[C@@H](C)O[C@@H](C)C1)Cn1c-2c(C2CCCCC2)c2ccc(C(=O)NS(=O)(=O)N(C)C)cc21 (mixture of isomers) [Example 3, rac-(3aR,14bR)-10-Cyclohexyl-3a-(((2S,6R)-2,6-dimethyl-4-morpholinyl)carbonyl)-N-(dimethylsulfamoyl)-13-methoxy-2-methyl-1,2,3,3a,4,14b-hexahydroindolo[2,1-a]pyrrolo[3,4-d][2]benzazepine-7-carboxamide] |  |  | 20 to 500 | 20 to 500 |
| COc1ccc2c(c1)C1CN(C(C)=O)CC1(C(=O)N1C[C@@H](C)O[C@@H](C)C1)Cn1c-2c(C2CCCCC2)c2ccc(C(=O)NS(=O)(=O)N(C)C)cc21 (mixture of isomers) [Example 4, rac-(3aR,14bR)-2-Acetyl-10-cyclohexyl-3a-(((2S,6R)-2,6-dimethyl-4-morpholinyl)carbonyl)-N-(dimethylsulfamoyl)-13-methoxy-1,2,3,3a,4,14b-hexahydroindolo[2,1-a]pyrrolo[3,4-d][2]benzazepine-7-carboxamide] |  |  | 20 to 500 | 20 to 500 |
| COc1ccc2c(c1)C1CN(C(C)C)CC1(C(=O)N1C[C@@H](C)O[C@@H](C)C1)Cn1c-2c(C2CCCCC2)c2ccc(C(=O)NS(=O)(=O)N(C)C)cc21 (mixture of isomers) [Example 5, rac-(3aR,14bR)-10-Cyclohexyl-3a-(((2S,6R)-2,6-dimethyl-4-morpholinyl)carbonyl)-N-(dimethylsulfamoyl)-2-isopropyl-13-methoxy-1,2,3,3a,4,14b-hexahydroindolo[2,1-a]pyrrolo[3,4-d][2]benzazepine-7-carboxamide] | 200 | 120 |  |  |
| COc1ccc2c(c1)C1CN(Cc3ccccc3)CC1(C(=O)N(C)C)Cn1c-2c(C2CCCCC2)c2ccc(C(=O)NS(=O)(=O)N(C)C)cc21 (racemic) [Example 6, rac-(3aR,14bR)-2-benzyl-10-cyclohexyl-N^7-(dimethylsulfamoyl)-13-methoxy-N^3a,N^3a-dimethyl-1,2,3,14b-tetrahydroindolo[2,1-a]pyrrolo[3,4-d][2]benzazepine-3a,7(4H)-dicarboxamide] |  |  | 20 to 500 | 20 to 500 |
| COc1ccc2c(c1)C1CNCC1(C(=O)N(C)C)Cn1c-2c(C2CCCCC2)c2ccc(C(=O)NS(=O)(=O)N(C)C)cc21 (racemic) [Example 7, rac-(3aR,14bR)-10-cyclohexyl-N^7-(dimethylsulfamoyl)-13-methoxy-N^3a,N^3a-dimethyl-1,2,3,14b-tetrahydroindolo[2,1-a]pyrrolo[3,4-d][2]benzazepine-3a,7(4H)-dicarboxamide] | 41 | 22 |  |  |
| COc1ccc2c(c1)C1CN(C(=O)N(C)C)CC1(C(=O)N(C)C)Cn1c-2c(C2CCCCC2)c2ccc(C(=O)NS(=O)(=O)N(C)C)cc21 (racemic) [Example 8, rac-(3aR,14bR)-10-cyclohexyl-N^7-(dimethylsulfamoyl)-13-methoxy-N^2,N^2,N^3a,N^3a-tetramethyl-1,14b-dihydroindolo[2,1-a]pyrrolo[3,4-d][2]benzazepine-2,3a,7(3H,4H)-tricarboxamide] |  |  | 20 to 500 | 20 to 500 |
| COc1ccc2c(c1)C1CN(C(C)=O)CC1(C(=O)N(C)C)Cn1c-2c(C2CCCCC2)c2ccc(C(=O)NS(=O)(=O)N(C)C)cc21 (racemic) [Example 9, rac-(3aR,14bR)-2-acetyl-10-cyclohexyl-N^7-(dimethylsulfamoyl)-13-methoxy-N^3a,N^3a-dimethyl-1,2,3,14b-tetrahydroindolo[2,1-a]pyrrolo[3,4-d][2]benzazepine-3a,7(4H)-dicarboxamide] |  |  | 20 to 500 | 20 to 500 |
| COc1ccc2c(c1)C1CN(C)CC1(C(=O)N(C)C)Cn1c-2c(C2CCCCC2)c2ccc(C(=O)NS(=O)(=O)N(C)C)cc21 (racemic) [Example 10, rac-(3aR,14bR)-10-Cyclohexyl-N^7-(dimethylsulfamoyl)-13-methoxy-N^3a,N^3a,2-trimethyl-1,2,3,14b-tetrahydroindolo[2,1-a]pyrrolo[3,4-d][2]benzazepine-3a,7(4H)-dicarboxamide] | 37 | 26 |  |  |
